ChEMBL document CHEMBL3616461, “Design, synthesis and biological evaluation of novel pyrazolo-pyrimidinones as DPP-IV inhibitors in diabetes” (Bioorg Med Chem Lett, 2015)

What was measured:
Dipeptidyl peptidase 4 = Dipeptidyl peptidase 4 (Homo sapiens, UniProt P27487); assay: Inhibition of human recombinant DPP-4 using Gly-pro-p-nitroanilide as substrate assessed as formation of p-nitroaniline after 30 mins by colorimetric assay
[1] = Cytotoxicity against rat macrophages by MTS/PMS assay; format: cell-based; conditions: macrophage
Rattus norvegicus [2] = assay: Antidiabetic activity in high-fat-diet and low dose streptozotocin-induced diabetic Wistar rat assessed as blood glucose level at 50 mg/kg, po after 15 days (reference value: 515 mg/dl); format: functional
Rattus norvegicus [3] = assay: Antidiabetic activity in high-fat-diet and low dose streptozotocin-induced diabetic Wistar rat assessed as blood glucose level at 10 mg/kg, po after 15 days (reference value: 515 mg/dl); format: functional

Sequence of Dipeptidyl peptidase 4 (P27487 whole entry): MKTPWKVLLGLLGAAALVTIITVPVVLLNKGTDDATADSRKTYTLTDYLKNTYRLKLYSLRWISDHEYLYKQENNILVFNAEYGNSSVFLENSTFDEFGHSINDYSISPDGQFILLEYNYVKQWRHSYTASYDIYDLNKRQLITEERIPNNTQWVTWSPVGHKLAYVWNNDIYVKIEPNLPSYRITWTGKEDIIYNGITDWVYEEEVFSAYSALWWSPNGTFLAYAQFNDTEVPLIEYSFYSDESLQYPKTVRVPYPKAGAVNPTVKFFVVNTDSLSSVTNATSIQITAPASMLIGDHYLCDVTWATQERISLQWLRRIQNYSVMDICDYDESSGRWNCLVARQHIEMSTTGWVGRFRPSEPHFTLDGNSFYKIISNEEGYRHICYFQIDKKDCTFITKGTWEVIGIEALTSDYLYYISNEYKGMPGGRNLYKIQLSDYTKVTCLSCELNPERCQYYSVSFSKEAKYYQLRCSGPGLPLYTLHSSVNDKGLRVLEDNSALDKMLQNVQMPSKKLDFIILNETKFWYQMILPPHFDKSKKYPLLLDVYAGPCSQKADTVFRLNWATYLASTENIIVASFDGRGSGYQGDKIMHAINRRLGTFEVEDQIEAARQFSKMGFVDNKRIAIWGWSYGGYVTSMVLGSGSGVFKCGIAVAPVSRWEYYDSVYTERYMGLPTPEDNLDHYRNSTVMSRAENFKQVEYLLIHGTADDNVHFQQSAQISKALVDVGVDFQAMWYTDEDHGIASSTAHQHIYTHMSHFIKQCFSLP

IC50 (Dipeptidyl peptidase 4)	Compound	Activity [1]	Activity (Rattus norvegicus [2])	Activity (Rattus norvegicus [3])
Not Active	Cc1nc2c(cnn2-c2ccccc2)c(=O)n1-c1ccccc1	Non-toxic		
Not Active	Cc1nc2c(cnn2-c2ccccc2)c(=O)n1-c1ccc(F)cc1	Non-toxic		
Not Active	CCc1ccc(-n2c(C)nc3c(cnn3-c3ccccc3)c2=O)cc1	Non-toxic		
	Cc1cc(C)c(-n2c(C)nc3c(cnn3-c3ccccc3)c2=O)c(C)c1	Non-toxic	162.6 mg/dL	
Not Active	COc1ccc(-n2ncc3c(=O)n(-c4ccc(F)cc4)c(C)nc32)cc1	Non-toxic		
Not Active	Cc1nc2c(cnn2-c2ccccc2)c(=O)n1Cc1ccccc1	Non-toxic		
Not Active	Cc1nc2c(cnn2-c2ccccc2)c(=O)n1-c1ccc(F)cc1F	Non-toxic		
	Cc1nc2c(cnn2-c2ccccc2)c(=O)n1-c1ccccn1	Non-toxic		
	Cc1nc2c(cnn2-c2ccccc2)c(=O)n1-c1ncccn1	Non-toxic		
	Cc1ccnc(-n2c(C)nc3c(cnn3-c3ccccc3)c2=O)c1	Non-toxic	198.5 mg/dL	
	Cc1nc2c(cnn2-c2ccccc2)c(=O)n1-c1ccc(Br)cn1	Non-toxic		
Not Active	Cc1nc2c(cnn2-c2ccccc2)c(=O)n1-c1ccc([N+](=O)[O-])cn1	Non-toxic		
Not Active	COc1ccc(-n2ncc3c(=O)n(-c4ccccn4)c(C)nc32)cc1	Non-toxic		
	COc1ccc(-n2ncc3c(=O)n(-c4cc(C)ccn4)c(C)nc32)cc1	Non-toxic		
Not Active	COc1ccc(-n2ncc3c(=O)n(-c4ccc(Br)cn4)c(C)nc32)cc1	Non-toxic		
Not Active	COc1ccc(-n2ncc3c(=O)n(-c4ccc([N+](=O)[O-])cn4)c(C)nc32)cc1	Non-toxic		
	COc1ccc(-n2ncc3c(=O)n(-c4nc(-c5ccc(Cl)cc5)cs4)c(C)nc32)cc1	Non-toxic		
Not Active	CCOC(=O)c1sc(-n2c(C)nc3c(cnn3-c3ccccc3)c2=O)c(C(=O)OCC)c1C	Non-toxic		
Not Active	CCOC(=O)c1sc(-n2c(C)nc3c(cnn3-c3ccc(OC)cc3)c2=O)c(C(=O)OCC)c1C	Non-toxic		
	O=C(Nc1ccc(F)cc1)c1cnn(-c2ccccc2)c1NC(=O)C(F)(F)F	Non-toxic	193.2 mg/dL	
Not Active	O=C(Nc1ccc(Cl)cc1)c1cnn(-c2ccccc2)c1NC(=O)C(F)(F)F	Non-toxic		
Not Active	CC(=O)Nc1c(C(=O)Nc2ccc(Br)cn2)cnn1-c1ccccc1	Non-toxic		
Not Active	CC(=O)Nc1c(C(=O)Nc2nc(-c3ccc(Cl)cc3)cs2)cnn1-c1ccccc1	Non-toxic		
Not Active	CC(=O)Nc1c(C(=O)Nc2ccccn2)cnn1-c1ccccc1	Non-toxic		
Not Active	Cc1nc2c(cnn2-c2ccccc2)c(=O)n1-c1cccc(Cl)c1	Non-toxic		
	N[C@@H](CC(=O)N1CCn2c(nnc2C(F)(F)F)C1)Cc1cc(F)c(F)cc1F [SITAGLIPTIN]	Non-toxic		136.4 mg/dL
